Measurements reported in ChEMBL document CHEMBL1201862, “PubChem BioAssay data set” (2004).
The source made the active and inactive calls.

Key:
[1] = target: T1, Calpain-2 catalytic subunit (Sus scrofa, UniProt P43367); assay: m-calpain protease blockers, concentration series – biochemical, fluorogenic peptide substrate, dose response (AID 1420); assay type: functional
T1 sequence (P43367 whole entry): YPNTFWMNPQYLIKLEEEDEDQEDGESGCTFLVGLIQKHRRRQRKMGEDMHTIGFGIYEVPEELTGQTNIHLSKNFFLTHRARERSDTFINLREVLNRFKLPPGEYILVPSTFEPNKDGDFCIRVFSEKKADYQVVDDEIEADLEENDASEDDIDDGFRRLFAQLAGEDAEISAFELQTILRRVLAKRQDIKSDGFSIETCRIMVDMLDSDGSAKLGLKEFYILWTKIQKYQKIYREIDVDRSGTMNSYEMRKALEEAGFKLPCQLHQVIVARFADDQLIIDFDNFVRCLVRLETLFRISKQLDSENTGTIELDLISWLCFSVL

[2] = target: NACHT, LRR and PYD domains-containing protein 1 (Homo sapiens, UniProt Q9C000); assay: NALP1 inhibitors in yeast, dose response, luminescent (AID 488860); assay type: functional
Saccharomyces cerevisiae = assay: S. cerevisiae Caspase-1/ASC signal blockers IC50, NALP1 inhibitor project selectivity test (AID 488863); assay type: functional, organism-based
[3] = target: Cystic fibrosis transmembrane conductance regulator/Golgi-associated PDZ and coiled-coil motif-containing protein (Homo sapiens, UniProt P13569+Q9HD26); assay: potency against CAL PDZ-peptide interaction – biochemical, fluorescence polarization, Cerulean-tagged CAL PDZ, cherry-picks, dose response (AID 504773)
Phospholipase A2 = Phospholipase A2 (Homo sapiens, UniProt P04054); assay type: functional;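 further: confirmatory dose-response counterscreen on phospholipase A2, testing hits that came from an ultra-high-throughput screen for ATG4B inhibitors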
Chain of Phospholipase A2 (P04054 whole entry): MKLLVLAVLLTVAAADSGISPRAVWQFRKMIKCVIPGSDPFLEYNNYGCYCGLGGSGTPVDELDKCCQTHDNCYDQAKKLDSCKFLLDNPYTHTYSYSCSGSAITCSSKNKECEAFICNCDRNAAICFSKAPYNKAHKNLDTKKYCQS

Tumor necrosis factor = Tumor necrosis factor (Homo sapiens, UniProt P01375); assay: analog potency on TNFa NF-kB signaling – cell-based, revised, SAR follow-up (AID 2337); assay type: functional
[4] = target: T2, Short transient receptor potential channel 4 (Mus musculus, UniProt Q9QUQ5); assay: block of DAMGO-driven TRPC4 calcium entry – cell-based, HEK293 TRPC4/mu-opioid, Fluo-4 calcium, dose response (AID 434942); assay type: functional;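 further: potency of inhibitors blocking the TRPC4 calcium response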
T2 sequence (Q9QUQ5 whole entry): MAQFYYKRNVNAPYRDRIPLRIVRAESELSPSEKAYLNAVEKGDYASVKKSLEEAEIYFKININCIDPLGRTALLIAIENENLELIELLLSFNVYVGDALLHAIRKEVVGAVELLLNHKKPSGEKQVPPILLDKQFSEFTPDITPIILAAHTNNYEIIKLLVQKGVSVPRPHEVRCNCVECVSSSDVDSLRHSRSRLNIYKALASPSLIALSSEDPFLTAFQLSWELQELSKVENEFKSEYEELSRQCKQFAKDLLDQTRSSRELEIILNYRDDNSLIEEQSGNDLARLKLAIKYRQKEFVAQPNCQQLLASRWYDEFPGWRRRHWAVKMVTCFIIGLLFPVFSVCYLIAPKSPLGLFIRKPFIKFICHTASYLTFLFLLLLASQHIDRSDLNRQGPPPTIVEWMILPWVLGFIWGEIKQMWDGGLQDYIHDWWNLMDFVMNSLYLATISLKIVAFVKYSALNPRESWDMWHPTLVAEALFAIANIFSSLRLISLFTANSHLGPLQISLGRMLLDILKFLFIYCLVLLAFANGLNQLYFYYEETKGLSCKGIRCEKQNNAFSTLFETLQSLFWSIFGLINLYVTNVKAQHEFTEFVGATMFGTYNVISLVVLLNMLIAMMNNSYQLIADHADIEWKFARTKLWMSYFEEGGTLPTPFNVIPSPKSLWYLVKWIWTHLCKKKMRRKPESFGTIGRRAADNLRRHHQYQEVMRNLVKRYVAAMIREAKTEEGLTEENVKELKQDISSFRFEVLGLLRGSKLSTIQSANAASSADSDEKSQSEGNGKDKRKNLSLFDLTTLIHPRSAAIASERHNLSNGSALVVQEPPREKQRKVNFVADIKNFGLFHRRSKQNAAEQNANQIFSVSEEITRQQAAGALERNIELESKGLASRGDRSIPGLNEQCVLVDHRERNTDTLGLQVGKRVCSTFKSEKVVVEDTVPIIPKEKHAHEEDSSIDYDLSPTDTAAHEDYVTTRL

[5] = target: T3, Nucleotide-binding oligomerization domain-containing protein 2 (Homo sapiens, UniProt Q9HC29); assay: PubChem AID 2334; assay type: functional
T3 sequence (Q9HC29 whole entry, the tested form may be a part): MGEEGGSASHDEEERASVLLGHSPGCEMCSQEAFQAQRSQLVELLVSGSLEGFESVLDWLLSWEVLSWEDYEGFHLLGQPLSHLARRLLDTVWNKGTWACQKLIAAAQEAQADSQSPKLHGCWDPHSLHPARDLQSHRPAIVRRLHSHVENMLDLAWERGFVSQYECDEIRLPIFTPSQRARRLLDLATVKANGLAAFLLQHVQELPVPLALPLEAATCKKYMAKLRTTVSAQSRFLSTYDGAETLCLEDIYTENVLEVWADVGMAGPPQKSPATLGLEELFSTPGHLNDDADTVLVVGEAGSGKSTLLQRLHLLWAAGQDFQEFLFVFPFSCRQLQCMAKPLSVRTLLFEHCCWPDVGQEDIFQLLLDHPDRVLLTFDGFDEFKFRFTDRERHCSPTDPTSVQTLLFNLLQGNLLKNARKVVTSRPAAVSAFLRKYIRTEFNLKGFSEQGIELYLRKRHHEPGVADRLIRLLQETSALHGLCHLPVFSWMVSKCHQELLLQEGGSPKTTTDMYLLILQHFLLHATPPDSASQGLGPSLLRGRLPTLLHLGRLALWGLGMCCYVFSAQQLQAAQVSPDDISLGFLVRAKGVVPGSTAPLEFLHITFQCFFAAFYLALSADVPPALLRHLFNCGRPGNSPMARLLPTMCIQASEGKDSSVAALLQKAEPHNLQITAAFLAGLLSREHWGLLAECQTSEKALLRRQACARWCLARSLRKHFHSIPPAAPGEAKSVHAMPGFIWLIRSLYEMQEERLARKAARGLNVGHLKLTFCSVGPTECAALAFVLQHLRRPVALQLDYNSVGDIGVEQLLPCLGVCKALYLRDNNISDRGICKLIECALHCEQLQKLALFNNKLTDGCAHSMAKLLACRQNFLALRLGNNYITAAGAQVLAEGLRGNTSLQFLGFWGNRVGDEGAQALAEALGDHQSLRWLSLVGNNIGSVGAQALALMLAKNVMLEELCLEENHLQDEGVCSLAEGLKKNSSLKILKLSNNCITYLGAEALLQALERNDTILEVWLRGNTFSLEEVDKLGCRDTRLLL

Cysteine protease ATG4B = target: T4, Cysteine protease ATG4B (Homo sapiens, UniProt Q9Y4P1); assay type: functional;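 further: Fluorescence-based dose-response confirmation assay measuring inhibition of ATG4B activity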
T4 sequence (Q9Y4P1 whole entry): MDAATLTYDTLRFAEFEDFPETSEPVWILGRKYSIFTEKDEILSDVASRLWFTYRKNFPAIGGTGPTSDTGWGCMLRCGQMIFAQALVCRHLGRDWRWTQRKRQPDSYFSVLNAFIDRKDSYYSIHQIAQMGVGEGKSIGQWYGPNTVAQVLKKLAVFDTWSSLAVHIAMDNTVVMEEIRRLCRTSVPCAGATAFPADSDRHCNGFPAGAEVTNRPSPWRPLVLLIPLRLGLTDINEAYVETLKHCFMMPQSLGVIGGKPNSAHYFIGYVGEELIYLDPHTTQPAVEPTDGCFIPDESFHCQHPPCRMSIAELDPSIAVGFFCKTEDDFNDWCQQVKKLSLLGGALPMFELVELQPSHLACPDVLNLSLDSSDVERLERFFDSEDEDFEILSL

[6] = target: Nucleotide-binding oligomerization domain-containing protein 1 (Homo sapiens, UniProt Q9Y239); assay: blockers of NOD1 pathway activity – revised, SAR follow-up (AID 2333); assay type: functional
Chain of Nucleotide-binding oligomerization domain-containing protein 1 (Q9Y239 whole entry, the tested form may be a part): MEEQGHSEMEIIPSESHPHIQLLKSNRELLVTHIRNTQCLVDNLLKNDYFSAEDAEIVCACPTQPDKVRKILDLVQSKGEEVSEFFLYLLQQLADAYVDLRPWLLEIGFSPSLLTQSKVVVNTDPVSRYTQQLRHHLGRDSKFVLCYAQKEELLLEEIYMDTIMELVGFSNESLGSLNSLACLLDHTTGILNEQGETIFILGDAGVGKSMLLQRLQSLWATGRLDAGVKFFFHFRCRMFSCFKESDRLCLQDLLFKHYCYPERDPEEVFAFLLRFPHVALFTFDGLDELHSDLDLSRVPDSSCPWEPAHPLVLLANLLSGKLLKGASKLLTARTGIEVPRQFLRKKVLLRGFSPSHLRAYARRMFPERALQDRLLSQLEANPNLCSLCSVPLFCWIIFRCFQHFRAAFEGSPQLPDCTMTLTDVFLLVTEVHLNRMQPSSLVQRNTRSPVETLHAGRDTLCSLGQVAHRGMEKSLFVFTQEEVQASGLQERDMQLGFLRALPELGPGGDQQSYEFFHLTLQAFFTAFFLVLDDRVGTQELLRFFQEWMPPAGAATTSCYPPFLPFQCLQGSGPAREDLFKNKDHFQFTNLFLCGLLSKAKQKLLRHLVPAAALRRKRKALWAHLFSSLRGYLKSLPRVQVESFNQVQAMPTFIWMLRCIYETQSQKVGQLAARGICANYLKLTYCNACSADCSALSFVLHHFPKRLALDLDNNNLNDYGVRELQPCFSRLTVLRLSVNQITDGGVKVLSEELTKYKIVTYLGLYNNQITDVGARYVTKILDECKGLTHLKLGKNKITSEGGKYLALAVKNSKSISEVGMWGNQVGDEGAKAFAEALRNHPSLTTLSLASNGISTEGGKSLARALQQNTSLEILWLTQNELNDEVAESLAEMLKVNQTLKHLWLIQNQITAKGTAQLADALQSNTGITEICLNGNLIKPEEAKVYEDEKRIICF

[7] = target: T3, Nucleotide-binding oligomerization domain-containing protein 2; assay: inhibition of NOD2-driven NF-kB reporter – cell-based, luminescence, uHTS, HEK293 (AID 1566); assay type: functional
H4 = assay: Luminescence Cell-Based Dose Response HTS to Identify Activators of 5'UTR Stem-Loop Driven Prion Protein mRNA Translation in H4 Neuroglioblastoma Cells. [Related pubchem assays: 1829 (Project Summary), 1814 (Primary HTS)]; assay type: functional; conditions: Homo sapiens
[8] = target: NACHT, LRR and PYD domains-containing protein 3 (Homo sapiens, UniProt Q96P20); assay: NALP3 inhibitors in yeast, dose response, luminescent (AID 488799); assay type: functional
Chain of NACHT, LRR and PYD domains-containing protein 3 (Q96P20 whole entry, the tested form may be a part): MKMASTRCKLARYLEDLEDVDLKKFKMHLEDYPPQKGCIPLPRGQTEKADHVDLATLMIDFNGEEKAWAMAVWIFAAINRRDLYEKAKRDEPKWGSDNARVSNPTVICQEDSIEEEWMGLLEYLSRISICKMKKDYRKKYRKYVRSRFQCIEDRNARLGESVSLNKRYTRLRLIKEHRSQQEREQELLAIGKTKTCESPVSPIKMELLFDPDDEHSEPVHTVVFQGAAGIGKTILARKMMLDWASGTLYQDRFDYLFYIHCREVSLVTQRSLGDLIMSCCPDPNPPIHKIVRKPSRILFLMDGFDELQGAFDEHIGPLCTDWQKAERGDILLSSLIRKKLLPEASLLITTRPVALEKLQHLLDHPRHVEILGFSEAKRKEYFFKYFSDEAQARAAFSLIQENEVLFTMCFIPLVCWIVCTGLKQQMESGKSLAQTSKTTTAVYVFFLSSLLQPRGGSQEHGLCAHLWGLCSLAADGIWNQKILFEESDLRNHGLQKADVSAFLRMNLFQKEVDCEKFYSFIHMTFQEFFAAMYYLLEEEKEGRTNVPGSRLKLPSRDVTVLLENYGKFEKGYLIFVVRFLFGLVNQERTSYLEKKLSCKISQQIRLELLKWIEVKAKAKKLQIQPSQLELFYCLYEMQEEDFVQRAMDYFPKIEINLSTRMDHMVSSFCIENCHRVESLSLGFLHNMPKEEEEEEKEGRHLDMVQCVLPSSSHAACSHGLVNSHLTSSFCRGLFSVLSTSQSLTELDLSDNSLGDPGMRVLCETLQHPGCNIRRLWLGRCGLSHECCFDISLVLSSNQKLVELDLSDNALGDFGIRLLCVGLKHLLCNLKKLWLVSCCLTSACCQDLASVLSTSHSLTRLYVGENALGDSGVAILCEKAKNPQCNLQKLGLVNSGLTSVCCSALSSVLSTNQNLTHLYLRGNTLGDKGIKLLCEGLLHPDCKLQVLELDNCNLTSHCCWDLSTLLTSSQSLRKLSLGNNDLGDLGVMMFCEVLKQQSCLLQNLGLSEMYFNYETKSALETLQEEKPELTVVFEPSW

[9] = Luminescence Cell-Based Dose Confirmation HTS to Identify Activators of 5'UTR Stem-Loop Driven Alpha-Synuclein mRNA Translation in H4 Neuroglioblastoma Cells. [Related pubchem assays: 1829 (Project Summary), 1814 (Primary HTS)]; assay type: functional
[10] = Luminescence Cell-Based Dose Response HTS to Identify Activators of Luciferase Translation or Activity in H4 […] Cells. [Related pubchem assays: 1829 (Project Summary), 1814 (Primary HTS)]; assay type: functional
Bcl-2-like protein 10 = Bcl-2-like protein 10 (Homo sapiens, UniProt Q9HD36); assay: Bcl-B/TR3 peptide binding disruption – biochemical, fluorescence polarization, FITC-TR3 peptide, selectivity assay for Bfl-1 inhibitor project, primary screen (AID 748);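 further: fluorescence polarization from a fluorescein-labelled TR3 peptide binding purified Bcl-B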
[11] = target: Intestinal-type alkaline phosphatase (Homo sapiens, UniProt P09923); assay: Dose Response confirmation of uHTS hits from a small molecule inhibitors of human intestinal alkaline phosphatase via a luminescent assay. [Related pubchem assays (depositor defined):AID2544, AID2574]; assay type: functional
Chain of Intestinal-type alkaline phosphatase (P09923 whole entry): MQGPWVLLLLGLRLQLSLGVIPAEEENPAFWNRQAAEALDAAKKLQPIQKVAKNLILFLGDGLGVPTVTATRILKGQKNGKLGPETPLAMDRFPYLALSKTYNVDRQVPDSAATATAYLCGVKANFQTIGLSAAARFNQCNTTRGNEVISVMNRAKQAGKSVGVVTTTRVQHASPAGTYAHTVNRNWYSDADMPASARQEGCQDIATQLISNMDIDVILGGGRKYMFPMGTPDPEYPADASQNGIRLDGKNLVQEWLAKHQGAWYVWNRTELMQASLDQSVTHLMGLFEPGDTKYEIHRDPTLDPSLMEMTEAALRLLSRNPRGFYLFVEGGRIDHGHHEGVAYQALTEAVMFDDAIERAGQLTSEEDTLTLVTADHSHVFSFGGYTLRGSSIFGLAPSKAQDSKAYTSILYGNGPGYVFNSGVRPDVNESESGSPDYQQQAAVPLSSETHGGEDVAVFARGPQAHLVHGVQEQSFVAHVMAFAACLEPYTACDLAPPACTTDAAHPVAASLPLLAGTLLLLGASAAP

Cytochrome P450 2C19 = Cytochrome P450 2C19 (Homo sapiens, UniProt P33261); assay: Cytochrome panel assay with activity outcomes. Panel member name: p450-cyp2c19 Compounds with AC50 equal or less than 10 uM are considered active; assay type: functional; conditions: read-out: AC50
Chain of Cytochrome P450 2C19 (P33261 whole entry): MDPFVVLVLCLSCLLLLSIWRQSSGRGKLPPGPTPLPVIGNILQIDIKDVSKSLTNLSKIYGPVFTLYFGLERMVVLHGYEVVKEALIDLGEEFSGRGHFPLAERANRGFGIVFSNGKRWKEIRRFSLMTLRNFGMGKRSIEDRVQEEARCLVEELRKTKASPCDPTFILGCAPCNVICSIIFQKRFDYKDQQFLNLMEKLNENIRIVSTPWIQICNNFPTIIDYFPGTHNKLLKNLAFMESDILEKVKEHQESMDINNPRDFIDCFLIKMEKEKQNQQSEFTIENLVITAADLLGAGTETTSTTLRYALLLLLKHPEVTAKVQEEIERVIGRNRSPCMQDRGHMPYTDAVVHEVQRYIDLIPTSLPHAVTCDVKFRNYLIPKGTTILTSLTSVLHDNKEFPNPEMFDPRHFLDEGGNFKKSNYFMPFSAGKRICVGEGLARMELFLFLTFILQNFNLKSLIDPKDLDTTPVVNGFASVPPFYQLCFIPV

Cytochrome P450 2D6 = Cytochrome P450 2D6 (Homo sapiens, UniProt P10635);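 further: CYP2D6 member of a cytochrome P450 panel assay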
Cytochrome P450 2C9 = Cytochrome P450 2C9 (Homo sapiens, UniProt P11712)
Chain of Cytochrome P450 2C9 (P11712 whole entry): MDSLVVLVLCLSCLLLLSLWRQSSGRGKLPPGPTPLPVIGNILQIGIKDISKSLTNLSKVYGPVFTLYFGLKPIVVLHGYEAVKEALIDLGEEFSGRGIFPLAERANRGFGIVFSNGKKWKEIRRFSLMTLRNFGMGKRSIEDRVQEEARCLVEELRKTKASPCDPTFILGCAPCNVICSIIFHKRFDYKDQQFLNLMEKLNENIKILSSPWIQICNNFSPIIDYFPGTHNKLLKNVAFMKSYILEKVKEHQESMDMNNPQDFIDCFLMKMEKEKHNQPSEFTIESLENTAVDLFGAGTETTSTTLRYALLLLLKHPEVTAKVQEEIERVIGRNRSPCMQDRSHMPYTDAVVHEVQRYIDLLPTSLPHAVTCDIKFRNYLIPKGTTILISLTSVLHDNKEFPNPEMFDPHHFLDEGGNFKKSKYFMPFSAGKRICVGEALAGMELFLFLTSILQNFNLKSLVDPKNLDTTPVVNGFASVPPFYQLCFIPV

[12] = target: G-protein coupled receptor 55 (Homo sapiens, UniProt Q9Y2T6); assay: selective activators of receptor GPR55 – imaging, U2OS cells, beta-arrestin-GFP redistribution, primary screen (AID 1961); assay type: functional
Chain of G-protein coupled receptor 55 (Q9Y2T6 whole entry): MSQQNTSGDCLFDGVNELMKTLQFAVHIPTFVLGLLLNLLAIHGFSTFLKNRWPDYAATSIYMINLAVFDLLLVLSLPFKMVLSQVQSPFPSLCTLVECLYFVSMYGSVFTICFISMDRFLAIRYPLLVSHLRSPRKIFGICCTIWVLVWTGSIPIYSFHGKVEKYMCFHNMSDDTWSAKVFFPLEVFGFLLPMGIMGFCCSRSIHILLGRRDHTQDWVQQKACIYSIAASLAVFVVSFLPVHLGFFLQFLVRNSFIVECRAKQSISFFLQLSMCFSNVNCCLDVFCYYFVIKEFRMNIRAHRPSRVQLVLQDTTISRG

[13] = HPDE-C7 pancreatic duct cell viability loss – fluorescence, HTS (AID 430); assay type: functional, cell-based; conditions: Homo sapiens
HT-1080 = assay: HT1080 cell viability loss – fluorescence readout (AID 620); assay type: functional, cell-based; conditions: Homo sapiens
Paired box protein Pax-8 = Paired box protein Pax-8 (Homo sapiens, UniProt Q06710); assay: PAX8 transcriptional activity inhibition in RMG-I – RMG-I cells, luciferase, cherry-pick, dose response (AID 687027); assay type: functional, cell-based;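 further: luciferase reporter driven by Pax8 target thyroperoxidase promoter measured by SteadyGlo luminescence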
[14] = viability loss of HPDE-C7K cells – cell-based, fluorescence, HTS, primary screen (AID 431); assay type: functional; conditions: Homo sapiens
[15] = target: Neurotensin receptor type 1 (Homo sapiens, UniProt P30989); assay type: functional;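 further: Image-based confirmatory dose-response assay measuring agonist activity at NTR1; NTR1-expressing U2OS osteosarcoma cells imaged for beta-arrestin GFP spot formation; agonist potency where compounds increase beta-arrestin recruitment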
[16] = target: Luciferin 4-monooxygenase (Photinus pyralis, UniProt P08659); assay: Counter Screen for Luciferase-based Assay Positives. [Related pubchem assays: 620, 618, 411 ]

In the case of `O=S(=O)(Nc1ccc(-n2cccc2)cc1)c1ccc(Cl)cc1Cl`, the IC50 [1] is reported as 9.85 µM (not active), the IC50 [2] is reported as 18.3 µM (active) and the IC50 (Saccharomyces cerevisiae) is reported as 56.8 µM (active).
In the case of `c1ccc(C(c2ccccc2)c2cccnc2)cc1`, the AC50 [3] is reported as 45.6 µM (active).
With `Cc1ccc(CSc2nc(-c3ccccc3)c(C#N)c(=O)[nH]2)cc1` the IC50 (Phospholipase A2) was 21.2 µM (inactive), the IC50 (Tumor necrosis factor) was 8.2 µM (active) and the EC50 [4] was 5.31 µM (active). The IC50 [5] was 6.9 µM (active), the IC50 (Cysteine protease ATG4B) was 7.62 µM (active) and the IC50 [6] was 5.5 µM (active). For the same molecule, the EC50 [7] was 13.2 µM (active).
For `COc1ccc(NC(=O)C#Cc2ccccc2)cc1`, the EC50 (H4) was 22.1 µM (active), the IC50 [8] was 8.01 µM (active) and the EC50 [9] was 0.192 µM (active). The EC50 [10] was 32.6 µM (active).
In the case of `Cc1cc2cc(CN(Cc3ccco3)S(=O)(=O)c3c(C)ccc4nsnc34)c(=O)[nH]c2cc1C`, the IC50 (Bcl-2-like protein 10) is reported as > 100 µM (inactive).
With `O=c1c2c(-c3cccs3)csc2ncn1-c1ccc(Br)cc1` the IC50 [11] was > 100 µM (inactive), the AC50 (Cytochrome P450 2C19) was 2.24 µM (inconclusive) and the AC50 (Cytochrome P450 2D6) was 3.55 µM (inconclusive). The AC50 (Cytochrome P450 2C9) was 3.98 µM (inconclusive).
In the case of `CC(C)C[C@@H](COc1ccccc1)N1CCN(CCc2ccccc2)CCC1=O`, the EC50 [12] is reported as 2.69 µM (active).
In the case of `Cc1ccc(-c2csc3ncnc(Sc4nnc(CN5CCCCCC5=O)o4)c23)cc1`, the EC50 [13] is reported as 1.78 µM (active), the EC50 (HT-1080) is reported as 20.1 µM (active) and the AC50 (Paired box protein Pax-8) is reported as 5 µM (active). For the same molecule, the EC50 [14] was 2.1 µM (active), the EC50 [15] was 8.73 µM (active) and the EC50 [16] was 74 µM (active).
